Biological target: ATP-dependent translocase ABCB1 (Homo sapiens, UniProt P08183)
Assay: TP_TRANSPORTER: increase in Rhodamine 123 intracellular accumulation (R123: 1.66 uM, Staurosporine: 80 uM) in MCF7/Adr cells
Format: functional, cell-based
Details: nci/adr-res

Sequence of ATP-dependent translocase ABCB1 (P08183 whole entry): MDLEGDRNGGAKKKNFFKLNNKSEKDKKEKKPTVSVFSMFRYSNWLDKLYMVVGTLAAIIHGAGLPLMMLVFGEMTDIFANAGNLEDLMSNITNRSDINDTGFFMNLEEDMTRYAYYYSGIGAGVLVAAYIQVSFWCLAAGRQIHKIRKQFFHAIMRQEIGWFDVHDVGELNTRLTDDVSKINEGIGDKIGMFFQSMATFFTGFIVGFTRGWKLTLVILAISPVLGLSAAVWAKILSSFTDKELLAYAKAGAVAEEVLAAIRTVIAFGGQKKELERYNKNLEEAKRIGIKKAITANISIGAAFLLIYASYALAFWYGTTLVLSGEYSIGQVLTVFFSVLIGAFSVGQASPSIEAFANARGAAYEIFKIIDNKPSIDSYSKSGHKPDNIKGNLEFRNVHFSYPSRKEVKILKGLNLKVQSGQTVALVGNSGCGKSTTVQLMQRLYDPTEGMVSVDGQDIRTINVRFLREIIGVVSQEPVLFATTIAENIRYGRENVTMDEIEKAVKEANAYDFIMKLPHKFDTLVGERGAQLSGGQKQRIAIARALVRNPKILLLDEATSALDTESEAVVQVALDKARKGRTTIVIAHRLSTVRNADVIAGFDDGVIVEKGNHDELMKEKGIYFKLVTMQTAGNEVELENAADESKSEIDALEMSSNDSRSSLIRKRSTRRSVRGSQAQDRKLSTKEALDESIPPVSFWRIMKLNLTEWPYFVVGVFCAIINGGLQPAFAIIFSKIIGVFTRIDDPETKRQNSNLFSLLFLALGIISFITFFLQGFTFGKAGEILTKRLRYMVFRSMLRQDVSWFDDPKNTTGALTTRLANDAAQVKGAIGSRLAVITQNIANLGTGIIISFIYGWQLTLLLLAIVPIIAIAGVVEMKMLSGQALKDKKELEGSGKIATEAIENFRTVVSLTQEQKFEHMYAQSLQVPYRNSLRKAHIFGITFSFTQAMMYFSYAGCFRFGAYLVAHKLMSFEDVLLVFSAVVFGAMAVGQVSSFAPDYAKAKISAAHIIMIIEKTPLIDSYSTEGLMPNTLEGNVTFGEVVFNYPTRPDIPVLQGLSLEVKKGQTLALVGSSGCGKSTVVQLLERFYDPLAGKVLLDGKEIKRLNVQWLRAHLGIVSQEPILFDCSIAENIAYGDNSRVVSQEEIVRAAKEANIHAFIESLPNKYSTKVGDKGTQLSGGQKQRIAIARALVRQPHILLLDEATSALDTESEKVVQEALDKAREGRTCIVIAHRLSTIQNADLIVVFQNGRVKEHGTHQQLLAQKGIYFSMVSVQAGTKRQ

## CN[C@@H]1C[C@H]2O[C@@](C)([C@@H]1OC)n1c3ccccc3c3c4c(c5c6ccccc6n2c5c31)C(=O)NC4 [STAUROSPORINE]
  Activity: 140%
